The subject of data set [1] is BALB/c mice (AA-induced ear swelling). Conditions: regardless of route of administration; cited from earlier work.
Data set [2] deals with COX (PGE2 and TXB2 synthesis). The experiment in a line: LPS-induced prostanoid (PGE2, TXB2) synthesis in human monocytes. In kind it is cell-based. Conditions: LPS 200 ng/mL, 18 hrs, data at 10 μM. On the procedure:
Human peripheral blood monocytes were isolated from buffy coats by lymphoprep gradient separation followed by counter-current centrifugal elutriation. Test compounds were dissolved in DMSO and added to fresh monocytes to achieve concentrations of 0, 10 and 100 μM. After 30 min, lipopolysaccharide (LPS) was added to achieve a final concentration of 200 ng/mL. After incubation for 18 hrs at 37° C. in 5% CO2, supernatants were removed and PGE2 and TXB2 (the stable hydrolysis product of TXA2) production were measured by radioimmunoassay (RIA). ANOVA followed by Newman-Keuls multiple comparisons test was used to examine differences between doses and the control values.

Another data set concerns rat aortic ring. Description: Rat aortic ring assay, contractile response to noradrenaline. As to conditions: 1 μg/ml. On the procedure: The vasodilatory capacity was examined ex vivo using the rat aortic ring assay.
Male Sprague-Dawley rats (250±50 g) were euthanased with 80% CO2 and 20% O2. The thoracic aorta was excised and quickly mounted in organ-baths as described. Full concentration-contractile curves were obtained to noradrenaline (0.1 nM-[…]) with and without test compounds delivered at a concentration of 1 μg/ml. Experiments were repeated in n=5 different rings from 5 different animals. Only one compound at any one concentration was tested on any one ring from any one animal. Sigmoidal dose response curves were fitted for the data and the logEC50 and the Ema, calculated (Prism 4, GraphPad Software). The difference in these values between the presence and absence of test compound was calculated using a two-tailed paired t test. The effects of β-oestrodiol and vehicle alone were examined as a positive and negative control respectively.

The nature of data set [3]: DPPH free radical scavenging. The protocol:
The antioxidant (free radical trapping) activity of test compounds was assessed using the stable free radical compound 2,2-diphenyl-1-picrylhydrazyl (DPPH). A stock solution of DPPH was prepared at a concentration of 0.1 mM in ethanol and mixed for 10 minutes prior to use. Test compounds at a concentration of 100 μM were reacted with DPPH for 20 minutes, after which time the absorbance at 517 nm was determined and the change in absorbance compared to a reagent blank (DPPH with ethanol alone). A dose response curve was produced for those compounds with free radical scavenging activity (ΔAbs>0.3) at 100 μM. The IC50 value was estimated as the concentration of test compound that caused a 0.6 change in absorbance (with 1.2 absorbance units representing total scavenging of the DPPH radical).

Another data set has as its target T1, ER beta receptor (Homo sapiens, UniProt Q92731).
T1 construct: purchased Panvera Corporation P2614/2615
Description: Estrogen Receptor Beta Competitor Assay Core HTS Kit (Panvera). Conditions: competitive binding; kind of quantity not given; read-out: binding affinity, ER beta receptor. The protocol:
The binding affinity of various compounds of the invention for both subtypes of the estrogen receptor was determined with the “Estrogen Receptor Alpha or Beta Competitor Assay Core HTS Kit” supplied by Panvera Corporation (Product No. P2614/2615).

T1 sequence (Q92731 whole entry): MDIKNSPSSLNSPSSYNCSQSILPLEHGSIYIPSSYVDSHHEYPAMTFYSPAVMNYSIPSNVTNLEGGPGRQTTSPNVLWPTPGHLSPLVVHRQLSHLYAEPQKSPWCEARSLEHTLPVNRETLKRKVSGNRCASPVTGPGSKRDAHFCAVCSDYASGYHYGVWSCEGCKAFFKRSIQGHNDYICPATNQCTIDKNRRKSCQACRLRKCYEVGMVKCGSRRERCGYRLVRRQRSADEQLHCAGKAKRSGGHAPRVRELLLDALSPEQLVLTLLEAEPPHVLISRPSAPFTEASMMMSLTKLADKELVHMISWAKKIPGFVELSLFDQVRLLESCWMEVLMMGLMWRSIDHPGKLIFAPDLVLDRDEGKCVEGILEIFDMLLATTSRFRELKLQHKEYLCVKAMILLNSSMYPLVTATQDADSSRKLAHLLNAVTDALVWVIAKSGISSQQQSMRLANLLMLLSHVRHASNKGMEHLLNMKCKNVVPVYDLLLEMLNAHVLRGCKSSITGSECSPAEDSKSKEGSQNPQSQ

As for `COc1ccc2c(c1)c(CC(=O)O)c(C)n2C(=O)c1ccc(Cl)cc1` [indomethacin], the AA-induced oedema entry in data set [1] is recorded as “does inhibit”. On to `Cc1c(O)ccc2c1OCC(c1ccccc1)=C2` [Cpd. 17, 7-Hydroxy-8-methylisoflav-3-ene], for which, in data set [2], the “COX inhibitory activity (inhibition of PGE2 and TXA2 production)” value is “significant COX inhibitory activity”. `CC(=O)Oc1ccc(-c2coc3cc(OC(C)=O)cc(C)c3c2=O)cc1` [Example 5, 4′,7-Diacetoxy-5-methylisoflavone]: the melting point (in general, the temperature, or range, at which the solid turns liquid) lay in the range of 195 to 197 °C. Still for that read-out and setting: under `CC(=O)Oc1ccc(C2COc3cc(OC(C)=O)cc(C)c3C2=O)cc1` (stereo not shown) [Example 6, 4′,7-Diacetoxy-5-methylisoflavan-4-one] stands 143 to 145 °C. Consider `CC(=O)Oc1ccccc1C(=O)O` [aspirin], for which, in data set [1], the AA-induced oedema entry is “did not influence”. On to `Cc1c(O)ccc2c1OCC(c1ccc(O)cc1)=C2` [Cpd. 13, 4′,7-Dihydroxy-8-methylisoflav-3-ene], for which the melting point was 190 to 193 °C. In the data set on rat aortic ring, the “contractile response (logEC50) of the aortic ring to noradrenaline” value is on record as “significantly inhibited” and the “strength of the contractile response (Emax)” value was “reduced”. Besides, the “ability to scavenge free radicals” value in data set [3] (DPPH) is given as “limited activity”. The EC50 – broadly, the midpoint of the concentration-response curve – in data set [3] (DPPH 0.1 mM, 20 minutes, read-out: Free radical scavenging ability EC50) came to 94 µM. For `CC(C)Cc1ccc(C(C)C(=O)O)cc1` (stereo not shown) [ibuprofen], in data set [1], the AA-induced oedema entry is given as “did not influence”. As to `CN1C(C(=O)Nc2ccccn2)=C(O)c2ccccc2S1(=O)=O` [piroxicam], the AA-induced oedema entry in data set [1] is on record as “did not influence”. In the case of `O=C1c2cc(Cl)c(O)cc2OCC1c1ccc(O)cc1` (stereo not shown) [6-Chloro-4′,7-dihydroxyisoflavan-4-one], the IC50 on ER beta receptor was 32.1 µM.
